From ChEMBL document CHEMBL6182873, “Fungal dimeric xanthones as anticancer agents by novelly stimulating sodium-calcium exchanger 1” (Eur J Med Chem, 2025)
pIC50: −log10 of the molar value. Active and inactive are the calls of the source. The calls are words filed in the database; no cut-off is given here.

What was measured:
AGS [1] = experiment: Anti-proliferative activity against human AGS cells assessed as inhibition of cell viability incubated for 48 hrs by CCK8 assay; format: functional, cell-based
Gastric cancer cell = experiment: Anti-proliferative activity against human gastric cancer cells assessed as reduction in cell proliferation at 10 to 40 uM; format: functional, cell-based; details: dose 10-40 µM
AGS [2] = experiment: Potency index, ratio of cisplatin IC50 to test compound IC50 for anti-proliferative activity against human AGS cells assessed as inhibition of cell viability incubated for 48 hrs by CCK8 assay; format: functional
GES1 = experiment: Anti-proliferative activity against human GES1 cells; format: toxicity, cell-based
AGS [3] = experiment: Inhibition of cell migration in human AGS cells at 5 uM incubated up to 24 hrs by scratch wound healing assay; format: functional, cell-based
AGS [4] = experiment: Inhibition of cell migration in human AGS cells at 5 uM by transwell assay; format: functional, cell-based
AGS [5] = experiment: Induction of apoptosis in human AGS cells assessed as viable cells at 5 uM by Annexin V-FITC/PI staining based flow cytometry (reference value: 94.1 %); format: functional; details: read-out: Activity
AGS [6] = experiment: Induction of apoptosis in human AGS cells assessed as early apoptotic cells at 5 uM by Annexin V-FITC/PI staining based flow cytometry (reference value: 4.25 %); format: functional
AGS [7] = experiment: Induction of apoptosis in human AGS cells assessed as late apoptotic cells at 5 uM by Annexin V-FITC/PI staining based flow cytometry (reference value: 1.43 %); format: functional
AGS [8] = experiment: Induction of apoptosis in human AGS cells assessed as necrotic cells at 5 uM by Annexin V-FITC/PI staining based flow cytometry (reference value: 0.20 %); format: functional
AGS [9] = experiment: Induction of apoptosis in human AGS cells assessed as viable cells at 10 uM by Annexin V-FITC/PI staining based flow cytometry (reference value: 94.1 %); format: functional; details: read-out: Activity
AGS [10] = experiment: Induction of apoptosis in human AGS cells assessed as early apoptotic cells at 10 uM by Annexin V-FITC/PI staining based flow cytometry (reference value: 4.25 %); format: functional
AGS [11] = experiment: Induction of apoptosis in human AGS cells assessed as late apoptotic cells at 10 uM by Annexin V-FITC/PI staining based flow cytometry (reference value: 1.43 %); format: functional
AGS [12] = experiment: Induction of apoptosis in human AGS cells assessed as necrotic cells at 10 uM by Annexin V-FITC/PI staining based flow cytometry (reference value: 0.20 %); format: functional
AGS [13] = experiment: Induction of apoptosis in human AGS cells assessed as viable cells at 20 uM by Annexin V-FITC/PI staining based flow cytometry (reference value: 94.1 %); format: functional; details: read-out: Activity
AGS [14] = experiment: Induction of apoptosis in human AGS cells assessed as early apoptotic cells at 20 uM by Annexin V-FITC/PI staining based flow cytometry (reference value: 4.25 %); format: functional
AGS [15] = experiment: Induction of apoptosis in human AGS cells assessed as late apoptotic cells at 20 uM by Annexin V-FITC/PI staining based flow cytometry (reference value: 1.43 %); format: functional
AGS [16] = experiment: Induction of apoptosis in human AGS cells assessed as necrotic cells at 20 uM by Annexin V-FITC/PI staining based flow cytometry (reference value: 0.20 %); format: functional
AGS [17] = experiment: Induction of cell cycle arrest in human AGS cells assessed as cell accumulation at G1 phase at 5 uM by PI staining based flow cytometry (reference value: 41.9 %); format: functional
AGS [18] = experiment: Induction of cell cycle arrest in human AGS cells assessed as cell accumulation at S phase at 5 uM by PI staining based flow cytometry (reference value: 32.4 %); format: functional
AGS [19] = experiment: Induction of cell cycle arrest in human AGS cells assessed as cell accumulation at G2 phase at 5 uM by PI staining based flow cytometry (reference value: 25.7 %); format: functional
[20] = biological target: Sodium/calcium exchanger 1 (Homo sapiens) (UniProt P32418); experiment: Activation of NCX1 in human AGS cells assessed as increase in intracellular Fluo4-Ca2+ level at 5 uM in presence of extracellular Fluo4-Ca2+ by cell imaging analysis; format: cell-based; details: filed as activator
Sequence of Sodium/calcium exchanger 1 (Homo sapiens) (P32418 36-973 limits assumed): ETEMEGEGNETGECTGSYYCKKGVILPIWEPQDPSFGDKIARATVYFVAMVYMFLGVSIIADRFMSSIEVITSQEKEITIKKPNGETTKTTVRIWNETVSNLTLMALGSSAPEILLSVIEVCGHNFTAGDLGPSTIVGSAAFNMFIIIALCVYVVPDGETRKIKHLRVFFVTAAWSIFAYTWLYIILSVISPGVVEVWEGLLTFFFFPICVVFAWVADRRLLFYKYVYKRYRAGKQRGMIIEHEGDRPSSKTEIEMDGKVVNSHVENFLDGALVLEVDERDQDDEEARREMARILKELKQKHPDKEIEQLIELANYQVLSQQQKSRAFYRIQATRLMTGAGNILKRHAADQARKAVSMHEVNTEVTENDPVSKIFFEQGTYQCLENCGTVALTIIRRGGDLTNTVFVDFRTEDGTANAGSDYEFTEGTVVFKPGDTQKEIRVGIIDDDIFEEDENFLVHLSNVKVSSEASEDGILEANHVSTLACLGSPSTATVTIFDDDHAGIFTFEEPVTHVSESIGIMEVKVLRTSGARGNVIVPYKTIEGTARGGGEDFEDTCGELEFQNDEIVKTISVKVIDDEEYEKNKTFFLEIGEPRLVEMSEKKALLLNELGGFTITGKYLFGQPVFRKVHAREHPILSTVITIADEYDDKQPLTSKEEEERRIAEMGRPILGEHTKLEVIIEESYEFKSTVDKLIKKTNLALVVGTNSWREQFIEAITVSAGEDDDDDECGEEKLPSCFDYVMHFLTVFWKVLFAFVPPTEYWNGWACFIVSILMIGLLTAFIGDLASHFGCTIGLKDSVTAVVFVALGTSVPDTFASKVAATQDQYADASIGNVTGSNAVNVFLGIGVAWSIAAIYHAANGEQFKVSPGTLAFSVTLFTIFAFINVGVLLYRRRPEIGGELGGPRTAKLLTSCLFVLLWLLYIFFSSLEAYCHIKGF

[21] = biological target: Sodium/calcium exchanger 1 (Homo sapiens) (UniProt P32418); experiment: Activation of NCX1 in human DLD-1 cells assessed as increase in intracellular Fluo4-Ca2+ level at 5 uM in presence of extracellular Fluo4-Ca2+ by cell imaging analysis; format: cell-based
[22] = biological target: Sodium/calcium exchanger 1 (Homo sapiens) (UniProt P32418); experiment: Activation of NCX1 in human AGS cells assessed as increase in intracellular Fluo4-Ca2+ level at 5 uM in presence of extracellular Fluo4-Ca2+/SN6 by cell imaging analysis; format: cell-based
[23] = biological target: Sodium/calcium exchanger 1 (Homo sapiens) (UniProt P32418); experiment: Activation of NCX1 in human AGS cells harboring shNCX1 assessed as increase in intracellular Fluo4-Ca2+ level at 5 uM in presence of extracellular Fluo4-Ca2+ by cell imaging analysis; format: cell-based
[24] = biological target: Sodium/calcium exchanger 1 (Homo sapiens) (UniProt P32418); experiment: Activation of NCX1 in human AGS cells assessed as induction of membrane currents at 5 uM in presence of extracellular Fluo4-Ca2+ by cell imaging analysis; format: cell-based; details: filed as activator
[25] = biological target: Sodium/calcium exchanger 1 (Homo sapiens) (UniProt P32418); experiment: Activation of NCX1 in human AGS cells assessed as induction of membrane currents at 5 uM in presence of extracellular Fluo4-Ca2+/SN6 by cell imaging analysis; format: cell-based
AGS [26] = experiment: Downregulation of PI3K level in human AGS cells by Western blot analysis; format: functional, cell-based; details: dose <= 10.0 µM
AGS [27] = experiment: Downregulation of AKT level in human AGS cells by Western blot analysis; format: functional, cell-based; details: dose <= 10.0 µM
AGS [28] = experiment: Downregulation of beta-catenin level in human AGS cells by Western blot analysis; format: functional, cell-based; details: dose <= 10.0 µM
AGS [29] = experiment: Downregulation of PI3K level in human AGS cells at 5 uM in presence of SN 6 by Western blot analysis; format: functional, cell-based
AGS [30] = experiment: Downregulation of AKT level in human AGS cells at 5 uM in presence of SN 6 by Western blot analysis; format: functional, cell-based
AGS [31] = experiment: Downregulation of beta-catenin level in human AGS cells at 5 uM in presence of SN 6 by Western blot analysis; format: functional, cell-based
AGS [32] = experiment: Effect on ERK1/2 level in human AGS cells up to 10 uM by Western blot analysis; format: functional, cell-based
B16 [33] = experiment: Antiproliferative activity against mouse B16 cells assessed as inhibition of cell viability; format: functional, cell-based
B16 [34] = experiment: Activation of NCX1 in mouse B16 cells assessed as increase in intracellular Fluo4-Ca2+ level at 5 uM in presence of extracellular Fluo4-Ca2+ by cell imaging analysis; format: cell-based; details: filed as activator
B16 [35] = experiment: Activation of NCX1 in mouse B16 cells assessed as increase in intracellular Fluo4-Ca2+ level at 5 uM in presence of extracellular Fluo4-Ca2+/SN 6 by cell imaging analysis; format: cell-based
B16 [36] = experiment: Activation of NCX1 in mouse B16 cells harboring shNCX1 assessed as increase in intracellular Fluo4-Ca2+ level at 5 uM in presence of extracellular Fluo4-Ca2+ by cell imaging analysis; format: cell-based
B16 [37] = experiment: Antitumor activity against mouse B16 cells implanted in nude mouse at 2.5 to 5 mg/kg, ip; format: functional, organism-based; details: dose 2.5-5 mg/kg

Compound `CC(=O)OC[C@@]12Oc3c(-c4ccc5c(c4O)C(=O)C4=C(O)C[C@H](C)[C@H](OC(C)=O)[C@]4(CO)O5)ccc(O)c3C(=O)C1=C(O)C[C@H](C)[C@@H]2OC(C)=O` (stereo in doubt; 3) [listing 1 of 2 here] has a pIC50 (AGS [1]; ags) of 5.41.

`CC(=O)O[C@H]1[C@@H](C)CC(O)=C2C(=O)c3c(ccc(-c4ccc(O)c5c4O[C@]4(CO)C(=C(O)C[C@H](C)[C@@H]4OC(C)=O)C5=O)c3O)O[C@]21CO` was tested, and the pIC50 (AGS [1]; Homo sapiens, AGS, 48 h) was 5.51, the Activity (Gastric cancer cell) was “Active” and the “Ratio IC50” value (AGS [2]) was 2. For the same compound, the Activity (GES1) was “Non-toxic”.

In the case of `CC(=O)OC[C@@]12Oc3ccc(-c4ccc5c(c4O)C(=O)C4=C(O)C[C@H](C)[C@H](OC(C)=O)[C@]4(CO)O5)c(O)c3C(=O)C1=C(O)C[C@H](C)[C@@H]2OC(C)=O`, the pIC50 (AGS [1]; Homo sapiens, AGS, 48 h) was 5.46, the Activity (Gastric cancer cell) was “Active” and the “Ratio IC50” value (AGS [2]) was 2. For the same compound, the Activity (GES1) was “Non-toxic”.

In the case of `CC(=O)O[C@H]1[C@@H](C)CC(O)=C2C(=O)c3c(O)ccc(-c4ccc5c(c4O)C(=O)C[C@](CO)([C@H]4OC(=O)C[C@@H]4C)O5)c3O[C@]21CO`, the pIC50 (AGS [1]; Homo sapiens, AGS, 48 h) was 5.58, the “Ratio IC50” value (AGS [2]) was 2 and the Activity (GES1) was “Non-toxic”.

In the case of `CC(=O)OC[C@@]12Oc3c(-c4ccc(O)c5c4O[C@]4(CO)C(=C(O)C[C@H](C)[C@@H]4OC(C)=O)C5=O)ccc(O)c3C(=O)C1=C(O)C[C@H](C)[C@@H]2OC(C)=O`, the pIC50 (AGS [1]; Homo sapiens, AGS, 48 h) was 5.28, the Activity (Gastric cancer cell) was “Active” and the “Ratio IC50” value (AGS [2]) was 2. For the same compound, the Activity (GES1) was “Non-toxic”, the inhibition (AGS [3]) was “Active” and the inhibition (AGS [4]) was “Active”. It also gave a viability at 5 µM (AGS [5]) of 91.8%, an Activity (AGS [6]) of 5.57% and an Activity (AGS [7]) of 2.54%. The Activity (AGS [8]) was 0.13%, the viability at 10 µM (AGS [9]) was 93.7% and the Activity (AGS [10]) was 4.24%. It also gave an Activity (AGS [11]) of 2.01%, an Activity (AGS [12]) of 0.094% and a viability at 20 µM (AGS [13]) of 77.3%. For the same compound, the Activity (AGS [14]) was 16.6%, the Activity (AGS [15]) was 5.94% and the Activity (AGS [16]) was 0.18%. For the same compound, the Activity (AGS [17]) was 48.8%, the Activity (AGS [18]) was 26.3% and the Activity (AGS [19]) was 24.9%. For the same compound, the Activity [20] was “Active”, the Activity [21] was “inactive” and the Activity [22] was “inactive”. For the same compound, the Activity [23] was “inactive”, the Activity [24] was “Active” and the Activity [25] was “inactive”. For the same compound, the Activity (AGS [26]) was “Dose-dependent-effect”, the Activity (AGS [27]) was “Dose-dependent-effect” and the Activity (AGS [28]) was “Dose-dependent-effect”. The Activity (AGS [29]) was “inactive”, the Activity (AGS [30]) was “inactive” and the Activity (AGS [31]) was “inactive”. For the same compound, the Activity (AGS [32]) was “No effect”, the pIC50 (B16 [33]) was 5.27 and the Activity (B16 [34]) was “Active”. For the same compound, the Activity (B16 [35]) was “inactive”, the Activity (B16 [36]) was “inactive” and the Activity (B16 [37]) was “Active; Activity Was Much Greater Than Cisplatin”.

`CC(=O)OC[C@@]12Oc3c(-c4ccc5c(c4O)C(=O)C4=C(O)C[C@H](C)[C@H](OC(C)=O)[C@]4(CO)O5)ccc(O)c3C(=O)C1=C(O)C[C@H](C)[C@@H]2OC(C)=O` (stereo in doubt; 3) [listing 2 of 2 here] was tested, and the Activity (Gastric cancer cell) was “Active”, the Activity [21] was “inactive” and the Activity [22] was “inactive”. The Activity [23] was “inactive”, the Activity [24] was “Active” and the Activity [25] was “inactive”.

With `CC(=O)O[C@H]1[C@@H](C)CC(O)=C2C(=O)c3c(ccc(-c4ccc5c(c4O)C(=O)C4=C(O)C[C@H](C)[C@H](OC(C)=O)[C@]4(CO)O5)c3O)O[C@]21CO` the pIC50 (AGS [1]; Homo sapiens, AGS, 48 h) was 5.46, the Activity (Gastric cancer cell) was “Active” and the “Ratio IC50” value (AGS [2]) was 2. For the same compound, the Activity (GES1) was “Non-toxic”.

In the case of `CC(=O)OC[C@@]12Oc3ccc(-c4ccc5c(c4O)C(=O)C4=C(O)C[C@H](C)[C@H](OC(C)=O)[C@]4(COC(C)=O)O5)c(O)c3C(=O)C1=C(O)C[C@H](C)[C@@H]2OC(C)=O`, the pIC50 (AGS [1]; Homo sapiens, AGS, 48 h) was 5.21, the Activity (Gastric cancer cell) was “Active” and the “Ratio IC50” value (AGS [2]) was 2. The Activity (GES1) was “Non-toxic”.

`CC(=O)O[C@H]1[C@@H](C)CC(O)=C2C(=O)c3c(O)ccc(-c4ccc(O)c5c4O[C@]4(CO)C(=C(O)C[C@H](C)[C@@H]4OC(C)=O)C5=O)c3O[C@]21CO` was tested, and the pIC50 (AGS [1]; Homo sapiens, AGS, 48 h) was 4.86, the Activity (Gastric cancer cell) was “Active” and the “Ratio IC50” value (AGS [2]) was 2. For the same compound, the Activity (GES1) was “Non-toxic”.

For `CC(=O)OC[C@@]12Oc3c(-c4ccc5c(c4O)C(=O)C4=C(O)C[C@H](C)[C@H](OC(C)=O)[C@]4(CO)O5)ccc(O)c3C(=O)C1=C(O)C[C@H](C)[C@@H]2OC(C)=O` (stereo in doubt; 2) [listing 1 of 2 here], the pIC50 (AGS [1]; Homo sapiens, AGS, 48 h) was 5.27, the “Ratio IC50” value (AGS [2]) was 2 and the Activity (GES1) was “Non-toxic”.

With `CC(=O)OC[C@@]12Oc3c(-c4ccc5c(c4O)C(=O)C4=C(O)C[C@H](C)[C@H](OC(C)=O)[C@]4(CO)O5)ccc(O)c3C(=O)C1=C(O)C[C@H](C)[C@@H]2OC(C)=O` (stereo in doubt; 2) [listing 2 of 2 here] the Activity (Gastric cancer cell) was “Active”.
